The subject of series [1] is normal adult mice. Description: One-trial object recognition test. The series is classed as in vivo. As to conditions: 25 nmol/day, test phase after 15 minute delay. Here is the method:
(§1) For the compound treatment, mice (8 animals/group) received subcutaneous implants of extended release depot pellets containing P21 or P22 at 25 nmol/day for 35 days of continuous dosing (Innovative Research of America, USA). For the control group (8 animals), pellets consisted of the carrier polymer only. Mice were anesthetized with 2.5% Avertin (0.38 ml for a 25 g animal). Under sterile conditions, pellets were implanted subcutaneously along the anterolateral aspect of the right shoulder with a precision trochar (Innovative Research of America). After recovery of anesthesia, animals were transferred to the animal colony. No complications associated with the implantation and treatment were observed. All procedures on animals were conducted in accordance with approved protocols from our Institutional Animal Welfare Committee.
In the one-trial object recognition task, animals are exposed to two different objects which they have to identify as novel or familiar based on the memory of an earlier experience with one of the two objects they encountered in the same open field. The familiar object is explored shorter than the novel encountered one because the representation of the former is still available in memory. The one-trial object recognition task tests some aspects of episodic memory but is limited to memory of an object (what), the location of an object (where), and the context in which it was encountered (which). However, the temporal dimension of the episode remains inaccessible to the experimentator, and because of this reason this task in animals is considered a test of short term memory.
The test used was an adaptation of the procedure previously described by Sargolini and collaborators (Sargolini, F., et al. Behav Brain Res 138 (2003):153-63). The testing apparatus was a classic open field (i.e. a PVC square arena, 50×50 cm, with walls 40 cm high). […] Object discrimination was calculated as follows: OD=(time spent close to new object)/(time spent close to new object)+(time spent close to old object)×100

Series [2] has as its system normal adult mice. The series is described as follows: Spatial reference memory task in the water maze. In kind it is in vivo. As for the experimental part:
as §1
Spatial reference learning and memory were evaluated in the water maze using a procedure adapted from that previously described by Morris et al. (Morris, R. G., et al. Nature 297 (1982): 681-3). The test required that mice used a spatial navigational strategy based on a spatial representation of the environment to find a fixed submerged escape platform. The procedure was performed in a 180 cm diameter circular tank. The pool was filled with water (21±1° C.) made opaque by adding white non-toxic paint. Acquisition started with the escape platform (15 cm diameter submerged 1 cm below water surface) in the Northwest quadrant and each animal was given 90 s to find the platform. […] At the end of each trial, the mouse was left on the platform for 20 seconds, then dried and returned to its home cage until the next trial. Five such acquisition trials were given on each day for four consecutive days. A test for retention, or probe trial (PT), was given 24 hours later. During the probe trial the mouse was allowed to swim in the tank without the escape platform for 60 seconds. This was followed by second and third probe trials 15 and 30 days after the first probe trial.
The measures of learning were the time and distance covered to reach the escape platform. For the probe trial, the tank was divided into four imaginary quadrants and a small zone where the escape platform had been. The measure of retention was calculated as the ratio of time spent or distance covered in target quadrant over that in the three other quadrants.
Mouse behavior in the water maze was monitored by a Samsung Digital Camera (SDC 4304) mounted to the ceiling and tracked and timed by a SMART (Pan Lab/San Diego Instruments) version 2.0.14 software.

Series [3] has as its system normal adult mice. Description: Open field, time in the centre of the arena (anxiety). In kind it is in vivo. As to conditions: 25 nmol/day, first five minutes of familiarization session. As for the experimental part:
as §1
The test used was an adaptation of the procedure previously described by Sargolini and collaborators (Sargolini, F., et al. Behav Brain Res 138 (2003):153-63). The testing apparatus was a classic open field (i.e. a PVC square arena, 50×50 cm, with walls 40 cm high). The open field was placed in a part of the room separated from the experimentator with a black opaque curtain. […] Object discrimination was calculated as follows: OD=(time spent close to new object)/(time spent close to new object)+(time spent close to old object)×100

Series [4] in a line: General examination (physical state, body weight, exploratory activity, swim speed, floating). As to conditions: 25 nmol/day for 35 days. The series is classed as in vivo, mice. Here is the method: All in vivo studies for characterization of compounds (stereology and behavioral analysis) were performed on 8-10-month-old female retired breeders of C57Bl6 background. Animals were acclimatized for at least 3 weeks to exclude occasional pregnant mice from the studies. Mice were group-housed (3 animals per cage) with a 12:12 hours light/dark cycle and with free access to food and water.
as §1
The physical state and condition of animals were carefully monitored throughout the treatment by evaluating grooming, physical state and clasping reflex. Body weight was also recorded.
The test used was an adaptation of the procedure previously described by Sargolini and collaborators (Sargolini, F., et al. Behav Brain Res 138 (2003):153-63). The testing apparatus was a classic open field (i.e. a PVC square arena, 50×50 cm, with walls 40 cm high). The open field was placed in a part of the room separated from the experimentator with a black opaque curtain. The open field was surmounted by a video camera connected to a computer. Three objects were employed in this task. The general procedure consisted of three different phases: a familiarization phase (1 session of 20 min), a sample phase, and a test phase. On the first days, mice were individually submitted to the familiarization session during which they were introduced in the empty arena in order to become familiar with the apparatus. This familiarization session allowed to record a baseline level of locomotor activity (measuring the distance covered in the open field) and of anxiety (measuring the time the animals spent in the centre of the arena during the first five minutes). On the second day each mouse was first submitted to the sample phase (session 1, ten minutes) for which two identical objects were placed in a symmetric position from the centre of the arena. After a 15 minute delay during which the mouse returned to its home cage, it was reintroduced in the arena to perform the test phase (session 2, 10 min). The mouse was then exposed to two objects: a familiar object (previously presented during the sample phase) and a new object, placed at the same location as during the sample phase. Data collection was performed using a video tracking system (Smart version 2.0.14 software, Pan Lab/San Diego Instruments). Object discrimination was calculated as follows: OD=(time spent close to new object)/(time spent close to new object)+(time spent close to old object)×100

Series [5] relates to adult hippocampal progenitors in the dentate gyrus. Description: Neurogenesis in the DG (BrdU-positive and BrdU/NeuN-double-positive cells). In kind it is in vivo, mice. As to conditions: 25 nmol/day for 35 days. As for the experimental part: as §1
To investigate neurogenesis, BrdU (Sigma, USA) was given as two daily i.p. injections (100 mg/kg/dose) for five days starting on day 2 of compounds treatment.
At the end of the behavioral experiment, animals were anesthetized with an overdose of sodium pentobarbital (120 mg/kg) and transcardially perfused with 0.1 M phosphate buffered saline (PBS). After perfusion, the brains were removed from the skull, the left hemisphere was immediately frozen for future biochemical analysis and the right hemisphere was immersion fixed in 4% paraformaldehyde in 0.1 M PBS for at least 24 hours at room temperature. Tissues were equilibrated and stored in 30% sucrose solution at 4° C. until sectioning. The brains were sectioned sagittaly on a freezing sliding microtome at 40 μm through the entire hippocampus and the sections were stored in glycol anti-freeze solution (Ethylene glycol, glycerol and 0.1 M PBS in 3:3:4 ratio) at −20° C. until further processing.
For double labeling of BrdU and NeuN, brain sections were pretreated with 2 M HCl at 37° C. for 30 min and neutralized with 0.1 M borate buffer (pH 8.5) for 10 minutes. […]
Neurogenesis in the dentate gyrus was evaluated by counting the number of BrdU-positive and BrdU/NeuN-double-positive cells in the dentate gyrus (DG). The number of positive cells was determined in every fifth section in a series of 40 μm sagittal sections throughout the DG using unbiased sterology. All BrdU-positive cells in the subgranular zone (SGZ) and granule cell layer (GCL) were counted using a fluorescent microscope (Nikon Eclipse 90i, Nikon Corporation, Japan). Double labeled cells were assessed by a confocal imaging system (D-Eclipse C1, Nikon Corporation). […] For each brain, at least 100 cells were counted based on coefficient of error determinations.

Series [6] can be described thus: General examination (physical state, body weight, exploratory activity, swim speed, floating). As to conditions: 25 nmol/day for 35 days. The series is classed as in vivo, mice. The source holds these as a separate data set.
The subject of series [7] is embryonic chick ciliary neurons. As to conditions: embryonic chick ciliary neurons in culture; cited from earlier work.
Series [8] deals with T1, human CNTF receptor (Homo sapiens, UniProt P26992).
T1 sequence (P26992 23-342): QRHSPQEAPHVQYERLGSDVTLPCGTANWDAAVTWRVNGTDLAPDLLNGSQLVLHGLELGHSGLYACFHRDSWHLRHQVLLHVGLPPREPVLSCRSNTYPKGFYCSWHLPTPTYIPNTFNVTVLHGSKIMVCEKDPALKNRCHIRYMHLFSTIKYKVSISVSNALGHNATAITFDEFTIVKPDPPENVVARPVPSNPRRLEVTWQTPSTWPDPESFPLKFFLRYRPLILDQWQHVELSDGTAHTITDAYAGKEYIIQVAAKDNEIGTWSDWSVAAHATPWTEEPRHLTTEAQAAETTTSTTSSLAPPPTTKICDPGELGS
As to conditions: cited from earlier work.

For series [9] the following is noted: cited from earlier work.
Series [10] has as its system AHPs. Description: Cell-based assay for differentiation of AHPs with CNTF (βIII-tubulin/DAPI). As to conditions: 1 hr fixation. As for the experimental part:
βIII-tubulin antigenicity is compromised by fixation, although longer fixation improves attachment to the plates. Therefore, plates with different coatings for their suitability to be used in differentiation assay using CNTF (0.1, 1, 10, 100 ng/ml) were tested. Coating matrices tested: • poly D-lysine • poly D-lysine/laminin • poly L-ornithine/laminin • polyethyleneimine • collagen I • fibronectin The best immunostaining for βIII-tubulin was with 10 min fixation. However, since less cells were lost with 1 hr fixation, the differentiation assay with CNTF was performed with 1 hr fixation. The best differentiation was achieved on polyethyleneimine coated plates using the ratio of βIII-tubulin immunostaining to DAPI nuclear staining (cell number) as % of control as a relative measure of differentiation.

Entries after “also recorded” stand apart in the source; their conditions may differ. Peptide text beside a SMILES is read from it. * marks the point of attachment. Adamantane1carbonyl = O=C(C12CC3CC(CC(C3)C1)C2)*; X1 = NC(=O)C12CC3CC(CC(N*)(C3)C1)C2

For `CC(C)C[C@H](NC(=O)CNC(=O)CNC(=O)[C@H](CC(=O)O)NC(=O)C12CC3CC(CC(C3)C1)C2)C(=O)NC12CC3CC(C1)CC(C(N)=O)(C3)C2` [Peptide P22, 1-AdCO-DGGL^AG-NH2] (Adamantane1carbonyl-DGGL-X1), in series [1], the “time exploring the new object versus the familiar object” value is “did not preferentially explore the novel object”. For the same molecule, the “effect in the probe trials” value in series [2] (three probe trials) is reported as “No statistically significant effect”. Also, the “escape latencies to reach the submerged platform (learning)” value in series [2] (training day 2 to 4, compared to control group) was “significantly reduced; also recorded: increased performance in the learning of spatial memory task”. Further, the “level of anxiety (time in the center of the open field)” value in [3] is reported as “spent more time in the center of the open field than control animals; also recorded: reduced anxiety level”. Moreover, the “exploratory behavior / exploratory activity” value in series [4] (open field) is “no alteration; also recorded: did not induce any effect”. Also, in series [4] (subcutaneous pellets), the body weight result is given as “no alteration; also recorded: did not induce any effect” and the general physical state entry is “no alteration”. Further, in [5], the “BrdU positive cells in the DG (GCL and SGZ)” value is reported as “No significant alteration in neurogenesis”; the “BrdU/NeuN positive cells in the DG (GCL)” value is listed as “No significant changes”. Moreover, the “floating behavior in the water maze task (sign of depression or locomotor impairment)” value in [6] was “no floating behavior was observed”. Also, the swim speed entry in series [6] (water maze) was “no alteration; also recorded: did not induce any effect”.

B1: recombinant rat CNTF: recombinant rat ciliary neurotrophic factor (protein, UniProt P20294 1-200, looked up)
Ciliary neurotrophic factor: MAFAEQTPLTLHRRDLCSRSIWLARKIRSDLTALMESYVKHQGLNKNINLDSVDGVPVASTDRWSEMTEAERLQENLQAYRTFQGMLTKLLEDQRVHFTPTEGDFHQAIHTLMLQVSAFAYQLEELMVLLEQKIPENEADGMPATVGDGGLFEKKLWGLKVLQELSQWTVRSIHDLRVISSHQMGISALESHYGAKDKQM
In the case of B1, the “biological activity in supporting survival and neurite outgrowth, relative to recombinant human CNTF” value in [7] was “four times better”. For the same molecule, the “affinity for the human CNTF receptor relative to human CNTF” value in series [8] was “higher affinity”.

B2: CNTF: Ciliary neurotrophic factor, a survival factor for various neuronal cell types; 200 amino acid protein (protein, UniProt P26441 1-200, looked up)
chain: MAFTEHSPLTPHRRDLCSRSIWLARKIRSDLTALTESYVKHQGLNKNINLDSADGMPVASTDQWSELTEAERLQENLQAYRTFHVLLARLLEDQQVHFTPTEGDFHQAIHTLLLQVAAFAYQIEELMILLEYKIPRNEADGMPINVGDGGLFEKKLWGLKVLQELSQWTVRSIHDLRFISSHQTGIPARGSHYIANNKKM
modifications: full-length
notes: Ciliary neurotrophic factor, a survival factor for various neuronal cell types; 200 amino acid protein
As to B2, in [9], the “side effects of administration in human clinical trials” value is “anorexia, skeletal muscle loss, hyperalgesia, cramps, and muscle pain”. In addition, the “βIII-tu/DAPI (% of Control) (100 ng/ml CNTF)” value is reported as 175 % of Control in series [10] (coating poly D-lysine), 240 % of Control in series [10] (coating poly D-lysine/laminin), 330 % of Control in series [10] (coating poly L-ornithine/laminin) and 480 % of Control in series [10] (coating poly ethyleneimine).

The record behind these values is patent US8592374B2, “Neurotrophic peptides” (Research Foundation for Mental Hygiene, Inc., priority 2007, dated 2013).
